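Dose response: 5 concentrations. Exposure: 48 h. Format: 96-well plates. Endpoint: linear interpolation; highest concentration if not reached. GI50 = concentration required for 50% inhibition of growth. TGI is the concentration that stops growth completely.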
Legend:
Test in all cases: NCI-60 cell line screen, 48 h
UACC-62 melanoma = system: UACC-62 melanoma
NCI/ADR-RES ovarian = system: NCI/ADR-RES ovarian
BT-549 breast = system: BT-549 breast
UACC-257 melanoma = system: UACC-257 melanoma
TK-10 renal = system: TK-10 renal
MOLT-4 leukemia = system: MOLT-4 leukemia
DU-145 prostate = system: DU-145 prostate
M14 melanoma = system: M14 melanoma
KM12 colon = system: KM12 colon
CCRF-CEM leukemia = system: CCRF-CEM leukemia
IGROV1 ovarian = system: IGROV1 ovarian
MDA-MB-435 = system: MDA-MB-435
COLO 205 colon = system: COLO 205 colon
K-562 leukemia = system: K-562 leukemia
SF-268 CNS = system: SF-268 CNS
HOP-62 NSCLC = system: HOP-62 NSCLC
SK-MEL-28 melanoma = system: SK-MEL-28 melanoma
SK-OV-3 ovarian = system: SK-OV-3 ovarian
SN12C renal = system: SN12C renal
OVCAR-3 ovarian = system: OVCAR-3 ovarian
EKVX NSCLC = system: EKVX NSCLC
A549 NSCLC = system: A549 NSCLC
NCI-H226 lung = system: NCI-H226 lung
HT29 colon = system: HT29 colon
HCT-15 colon = system: HCT-15 colon
SF-295 CNS = system: SF-295 CNS
ACHN renal = system: ACHN renal
OVCAR-8 ovarian = system: OVCAR-8 ovarian
UO-31 renal = system: UO-31 renal
SR leukemia = system: SR leukemia
HL-60(TB) leukemia = system: HL-60(TB) leukemia
SW-620 colon = system: SW-620 colon
LOX IMVI melanoma = system: LOX IMVI melanoma
MCF7 breast = system: MCF7 breast
SK-MEL-5 melanoma = system: SK-MEL-5 melanoma
NCI-H522 lung = system: NCI-H522 lung
NCI-H460 lung = system: NCI-H460 lung
RXF 393 renal = system: RXF 393 renal
HCC-2998 colon = system: HCC-2998 colon
PC-3 prostate = system: PC-3 prostate
T-47D breast = system: T-47D breast
SF-539 CNS = system: SF-539 CNS
MALME-3M melanoma = system: MALME-3M melanoma
CAKI-1 renal = system: CAKI-1 renal
A498 renal = system: A498 renal
786-0 renal = system: 786-0 renal
SK-MEL-2 melanoma = system: SK-MEL-2 melanoma
OVCAR-4 ovarian = system: OVCAR-4 ovarian
U251 CNS = system: U251 CNS
MDA-MB-231 breast = system: MDA-MB-231 breast
NCI-H23 lung = system: NCI-H23 lung
RPMI-8226 leukemia = system: RPMI-8226 leukemia
HOP-92 NSCLC = system: HOP-92 NSCLC
SNB-19 CNS = system: SNB-19 CNS
HCT-116 colon = system: HCT-116 colon
HS 578T breast = system: HS 578T breast
SNB-75 CNS = system: SNB-75 CNS
OVCAR-5 ovarian = system: OVCAR-5 ovarian

Structure (SMILES): CN1CCN(Cc2ccc(NC(=O)c3cncc(C#Cc4cnc5ccc(N)nn45)c3)cc2C(F)(F)F)CC1
- GI50 (UACC-62 melanoma): 1360 nM
- TGI (UACC-62 melanoma): 5050 nM
- GI50 (NCI/ADR-RES ovarian): 25600 nM
- TGI (NCI/ADR-RES ovarian): 50000 nM
- GI50 (BT-549 breast): 2070 nM
- TGI (BT-549 breast): 6050 nM
- GI50 (UACC-257 melanoma): 1070 nM
- TGI (UACC-257 melanoma): 3340 nM
- GI50 (TK-10 renal): 1290 nM
- TGI (TK-10 renal): 2650 nM
- GI50 (MOLT-4 leukemia): 369 nM
- TGI (MOLT-4 leukemia): 5810 nM
- GI50 (DU-145 prostate): 1390 nM
- TGI (DU-145 prostate): 5730 nM
- GI50 (M14 melanoma): 690 nM
- TGI (M14 melanoma): 1570 nM
- GI50 (KM12 colon): 8.16 nM
- TGI (KM12 colon): 1070 nM
- GI50 (CCRF-CEM leukemia): 240 nM
- TGI (CCRF-CEM leukemia): 50000 nM
- GI50 (IGROV1 ovarian): 1070 nM
- TGI (IGROV1 ovarian): 4640 nM
- GI50 (MDA-MB-435): 674 nM
- TGI (MDA-MB-435): 5780 nM
- GI50 (COLO 205 colon): 348 nM
- TGI (COLO 205 colon): 1350 nM
- GI50 (K-562 leukemia): 5 nM
- TGI (K-562 leukemia): 18100 nM
- GI50 (SF-268 CNS): 867 nM
- TGI (SF-268 CNS): 3460 nM
- GI50 (HOP-62 NSCLC): 1020 nM
- TGI (HOP-62 NSCLC): 3710 nM
- GI50 (SK-MEL-28 melanoma): 954 nM
- TGI (SK-MEL-28 melanoma): 2180 nM
- GI50 (SK-OV-3 ovarian): 2540 nM
- TGI (SK-OV-3 ovarian): 25700 nM
- GI50 (SN12C renal): 850 nM
- TGI (SN12C renal): 4480 nM
- GI50 (OVCAR-3 ovarian): 1670 nM
- TGI (OVCAR-3 ovarian): 12600 nM
- GI50 (EKVX NSCLC): 2630 nM
- TGI (EKVX NSCLC): 13300 nM
- GI50 (A549 NSCLC): 1620 nM
- TGI (A549 NSCLC): 5890 nM
- GI50 (NCI-H226 lung): 214 nM
- TGI (NCI-H226 lung): 6120 nM
- GI50 (HT29 colon): 444 nM
- TGI (HT29 colon): 2280 nM
- GI50 (HCT-15 colon): 1990 nM
- TGI (HCT-15 colon): 12200 nM
- GI50 (SF-295 CNS): 2850 nM
- TGI (SF-295 CNS): 10900 nM
- GI50 (ACHN renal): 2440 nM
- TGI (ACHN renal): 8150 nM
- GI50 (OVCAR-8 ovarian): 1290 nM
- TGI (OVCAR-8 ovarian): 5390 nM
- GI50 (UO-31 renal): 5050 nM
- TGI (UO-31 renal): 12900 nM
- GI50 (SR leukemia): 264 nM
- TGI (SR leukemia): 2240 nM
- GI50 (HL-60(TB) leukemia): 306 nM
- TGI (HL-60(TB) leukemia): 1550 nM
- GI50 (SW-620 colon): 356 nM
- TGI (SW-620 colon): 3110 nM
- GI50 (LOX IMVI melanoma): 510 nM
- TGI (LOX IMVI melanoma): 1280 nM
- GI50 (MCF7 breast): 284 nM
- TGI (MCF7 breast): 2370 nM
- GI50 (SK-MEL-5 melanoma): 3730 nM
- TGI (SK-MEL-5 melanoma): 10300 nM
- GI50 (NCI-H522 lung): 234 nM
- TGI (NCI-H522 lung): 1270 nM
- GI50 (NCI-H460 lung): 526 nM
- TGI (NCI-H460 lung): 3290 nM
- GI50 (RXF 393 renal): 842 nM
- TGI (RXF 393 renal): 1780 nM
- GI50 (HCC-2998 colon): 1180 nM
- TGI (HCC-2998 colon): 5650 nM
- GI50 (PC-3 prostate): 1330 nM
- TGI (PC-3 prostate): 10800 nM
- GI50 (T-47D breast): 2570 nM
- TGI (T-47D breast): 23900 nM
- GI50 (SF-539 CNS): 288 nM
- TGI (SF-539 CNS): 3260 nM
- GI50 (MALME-3M melanoma): 496 nM
- TGI (MALME-3M melanoma): 1520 nM
- GI50 (CAKI-1 renal): 1570 nM
- TGI (CAKI-1 renal): 5830 nM
- GI50 (A498 renal): 2720 nM
- TGI (A498 renal): 10600 nM
- GI50 (786-0 renal): 2080 nM
- TGI (786-0 renal): 6220 nM
- GI50 (SK-MEL-2 melanoma): 591 nM
- TGI (SK-MEL-2 melanoma): 1940 nM
- GI50 (OVCAR-4 ovarian): 1580 nM
- TGI (OVCAR-4 ovarian): 16800 nM
- GI50 (U251 CNS): 1300 nM
- TGI (U251 CNS): 6980 nM
- GI50 (MDA-MB-231 breast): 352 nM
- TGI (MDA-MB-231 breast): 2610 nM
- GI50 (NCI-H23 lung): 777 nM
- TGI (NCI-H23 lung): 2860 nM
- GI50 (RPMI-8226 leukemia): 1490 nM
- TGI (RPMI-8226 leukemia): 5090 nM
- GI50 (HOP-92 NSCLC): 138 nM
- TGI (HOP-92 NSCLC): 538 nM
- GI50 (SNB-19 CNS): 1680 nM
- TGI (SNB-19 CNS): 15300 nM
- GI50 (HCT-116 colon): 233 nM
- TGI (HCT-116 colon): 2890 nM
- GI50 (HS 578T breast): 804 nM
- TGI (HS 578T breast): 5300 nM
- GI50 (SNB-75 CNS): 593 nM
- TGI (SNB-75 CNS): 3180 nM
- GI50 (OVCAR-5 ovarian): 1410 nM
- TGI (OVCAR-5 ovarian): 9400 nM

From PubChem BioAssay (NCI)
